Consider three substances from US20080171716A1, “NUCLEIC ACID MODULATION OF TOLL-LIKE RECEPTOR-MEDIATED IMMUNE STIMULATION” (Protiva Biotherapeutics, Inc., priority 2006, published 2008).

Data set [1] addresses T1, TLR7 (Mus musculus, UniProt P58681).
T1 sequence (P58681 27-1050): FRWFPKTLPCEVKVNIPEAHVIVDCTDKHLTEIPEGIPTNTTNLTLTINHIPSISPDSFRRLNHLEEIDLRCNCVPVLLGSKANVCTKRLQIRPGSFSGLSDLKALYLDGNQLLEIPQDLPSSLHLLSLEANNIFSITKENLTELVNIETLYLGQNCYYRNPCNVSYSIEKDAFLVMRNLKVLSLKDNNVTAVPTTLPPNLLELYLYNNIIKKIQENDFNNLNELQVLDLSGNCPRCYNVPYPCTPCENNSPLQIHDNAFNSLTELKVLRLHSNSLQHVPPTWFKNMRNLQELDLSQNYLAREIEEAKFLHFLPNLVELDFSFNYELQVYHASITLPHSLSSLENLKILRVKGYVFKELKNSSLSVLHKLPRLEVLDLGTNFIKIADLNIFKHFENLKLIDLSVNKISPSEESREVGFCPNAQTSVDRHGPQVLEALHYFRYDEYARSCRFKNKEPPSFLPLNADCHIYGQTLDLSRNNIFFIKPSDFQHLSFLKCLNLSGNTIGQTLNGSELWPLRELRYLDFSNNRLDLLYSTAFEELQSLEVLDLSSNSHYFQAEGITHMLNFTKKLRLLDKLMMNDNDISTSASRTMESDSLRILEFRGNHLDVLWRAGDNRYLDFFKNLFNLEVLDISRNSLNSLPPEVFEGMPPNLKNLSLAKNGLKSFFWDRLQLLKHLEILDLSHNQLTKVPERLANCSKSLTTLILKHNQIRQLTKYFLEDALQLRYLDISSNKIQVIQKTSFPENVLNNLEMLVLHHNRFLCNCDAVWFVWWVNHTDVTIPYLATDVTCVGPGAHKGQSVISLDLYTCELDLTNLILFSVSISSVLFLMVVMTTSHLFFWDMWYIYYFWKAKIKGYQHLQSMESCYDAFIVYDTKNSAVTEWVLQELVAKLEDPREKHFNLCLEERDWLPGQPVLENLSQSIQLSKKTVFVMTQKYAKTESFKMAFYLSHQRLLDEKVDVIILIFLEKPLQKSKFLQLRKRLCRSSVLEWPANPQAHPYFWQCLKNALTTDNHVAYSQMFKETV
As to the kind of experiment: In vivo inhibition of loxoribine-mediated cytokine induction in mice. Also noted: from tissue; host or cells: whole animal: female Balb/C mice, plasma cytokines; species or system Balb/C mice. The conditions noted are these: 100 μg formulated RNA IV 2 h prior to 1 mg Lox. As for the experimental part: (§1) Cytokine ELISA. All cytokines were quantified using sandwich ELISA kits according to the manufacturer's instructions. These were mouse and human IFN-α (PBL Biomedical; Piscataway, N.J.) and IL-6 (eBioscience; San Diego, Calif.).
(§2) In Vivo Cytokine Induction. Animal studies were performed at Protiva Biotherapeutics in accordance with Canadian Council on Animal Care guidelines and following protocol approval by the local Animal Care and Use Committee. Female Balb/C mice were subjected to a two-week quarantine and acclimation period prior to use at six to eight-weeks of age. RNA formulations were administered by standard injection in the lateral tail vein in 0.2 ml PBS. Six hours after injection, blood was collected by cardiac puncture and processed as plasma for cytokine analysis. In experiments studying inhibition of cytokine induction by loxoribine, formulated RNA (100 μg) was administered IV 2 h prior to IV administration of 1 mg loxoribine in PBS. Blood was collected by cardiac puncture 2 h after administration of loxoribine and processed as plasma for cytokine analysis.

Data set [2] concerns the target T2, TLR7 (Homo sapiens, UniProt Q9NYK1).
T2 construct: Human PBMCs were isolated from whole blood of healthy donors; endogenous in cells; host or cells: primary human PBMCs from healthy donors
T2 sequence (Q9NYK1 27-1049): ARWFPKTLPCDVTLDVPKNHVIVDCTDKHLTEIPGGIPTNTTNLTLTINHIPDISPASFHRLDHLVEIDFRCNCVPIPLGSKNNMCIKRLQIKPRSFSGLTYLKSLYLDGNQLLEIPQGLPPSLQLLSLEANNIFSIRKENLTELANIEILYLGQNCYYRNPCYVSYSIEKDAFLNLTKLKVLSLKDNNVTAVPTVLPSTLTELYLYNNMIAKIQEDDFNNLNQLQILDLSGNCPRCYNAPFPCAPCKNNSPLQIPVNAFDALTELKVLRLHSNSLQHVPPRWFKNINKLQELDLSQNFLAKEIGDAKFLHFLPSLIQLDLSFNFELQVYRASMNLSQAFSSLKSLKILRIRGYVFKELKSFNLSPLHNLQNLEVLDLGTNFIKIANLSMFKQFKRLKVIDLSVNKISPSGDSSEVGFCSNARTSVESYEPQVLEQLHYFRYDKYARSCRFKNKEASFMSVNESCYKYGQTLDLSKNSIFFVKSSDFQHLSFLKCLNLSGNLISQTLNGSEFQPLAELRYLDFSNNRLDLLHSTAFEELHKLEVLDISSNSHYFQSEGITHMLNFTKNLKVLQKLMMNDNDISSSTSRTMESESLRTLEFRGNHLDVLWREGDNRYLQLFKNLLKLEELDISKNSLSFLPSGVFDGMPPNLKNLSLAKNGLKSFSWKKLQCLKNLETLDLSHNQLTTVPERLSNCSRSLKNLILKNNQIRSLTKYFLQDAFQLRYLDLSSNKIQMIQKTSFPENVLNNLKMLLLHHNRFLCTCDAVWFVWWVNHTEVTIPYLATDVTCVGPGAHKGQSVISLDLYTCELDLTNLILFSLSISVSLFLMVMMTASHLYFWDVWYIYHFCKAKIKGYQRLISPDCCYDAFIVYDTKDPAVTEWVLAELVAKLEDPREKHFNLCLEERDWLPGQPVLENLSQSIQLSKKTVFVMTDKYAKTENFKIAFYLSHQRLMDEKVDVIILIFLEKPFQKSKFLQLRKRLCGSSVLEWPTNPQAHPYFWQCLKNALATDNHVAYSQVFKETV
In words: Loxoribine (TLR7 agonist)-induced IFN-α/IL-6 production in human PBMCs. In kind it is cell-based. The settings on record: SNALP-encapsulated ssRNA added before naked agonist, supernatant at 24 hr, ELISA. The protocol: (§3) All RNA molecules used in this study were heated at 90° C. for 3 min. and then placed at 37° C. for 60 min. Non-denaturing PAGE analysis on a 20% polyacrylamide gel was performed to confirm that ssRNA molecules were intact and that no duplexes had formed upon heating. The RNA molecules were encapsulated in a SNALP formulation comprising PEG-cDMA:DLinDMA:cholesterol:DSPC in a 2:40:48:10 mol % ratio (2:40 SNALP), prepared using a syringe press process.
(§4) Fresh human peripheral blood mononuclear cells (PBMCs) were isolated and seeded at about 3×10^5 cells/well in a total volume of 180 μl. Next, 20 μl of the appropriate SNALP diluted in PBS or 10 μl of naked TLR agonist were added to the PBMCs. For time course experiments, PBMCs were pretreated with UmodS ssRNA or a control and the appropriate naked TLR agonist was added at 0, 0.5, or 2 hours after pretreatment. When the SNALP and naked TLR agonist were added separately, the SNALP was added first followed by the naked TLR agonist. At t=24 hr., the cell supernatant was harvested and IFN-α and/or IL-6 levels were determined using ELISA.
(§5) Lipid Encapsulation of RNA and ODN. RNA or ODN were encapsulated in liposomes by a process of spontaneous vesicle formation as described in Judge et al., supra, and Jeffs et al., Pharm. Res., 22:362-372 (2005).
(§6) Cell Isolation and Culture. Human PBMCs were isolated from whole blood of healthy donors by a standard Ficoll-Hypaque density centrifugation. Blood was diluted 1:1 with PBS, layered onto Ficoll-Paque Plus, and centrifuged at 1600 RPM for 30 min. PBMCs were washed in PBS twice followed by resuspension in complete media (RPMI 1640, 10% heat inactivated FBS, 2 mM L-glutamine, and 1% penicillin/streptomycin). PBMCs were plated at 2.5×10^5 cells/well in 96 well plates for cytokine induction assays.
(§7) Loxoribine (InvivoGen; San Diego, Calif.), polyIC (Sigma-Aldrich; St. Louis, Mo.), and formulated nucleic acids were diluted in PBS and added to either human PBMC or Flt3L DC cultures. Cells were incubated 24 h at 37° C. before supernatants were assayed for cytokines by ELISA.
as §1

The subject of data set [3] is TLR7/8. In words: Cytokine induction in human PBMCs by immunostimulatory RNA, alone or co-formulated with modified ssRNA in the same SNALP/lipid particle. Type of data set: cell-based. The protocol: as §3, §4
The ssRNA molecules used in this study were heated at 90° C. for 3 min. and then placed at 37° C. for 60 min to disrupt any potential secondary structure. Non-denaturing PAGE analysis on a 20% polyacrylamide gel was performed to confirm that ssRNA molecules were intact and that no duplexes had formed upon heating. siRNA duplexes were prepared by annealing equimolar concentrations of two deprotected and desalted ssRNA oligonucleotides using standard procedures. Formation of annealed siRNA duplexes was confirmed by non-denaturing PAGE analysis on a 20% polyacrylamide gel. The RNA molecules were encapsulated in a 2:40 SNALP formulation prepared using a syringe press process.
Fresh human peripheral blood mononuclear cells (PBMCs) were isolated and seeded at about 3×10^5 cells/well in a total volume of 180 μl. Next, 20 μl of the appropriate SNALP diluted in PBS were added to the PBMCs. At t=24 hr., the cell supernatant was harvested and IFN-α and/or IL-6 levels were determined using an enzyme-linked immunosorbent assay (ELISA). For example, IFN-α and IL-6 levels can be measured using a sandwich ELISA kit available from PBL Biomedical (Piscataway, N.J.) and eBioscience (San Diego, Calif.), respectively.
as §5, §6, §7, §1

Data set [4] addresses T1, TLR7. In words: In vivo cytokine induction by formulated ssRNA in mice. The settings on record: IV, plasma 6 h after administration. Also noted: from tissue; host or cells: whole animal: female Balb/C mice, plasma cytokines; species or system Balb/C mice. As for the experimental part:
as §1, §2

Setting [5] is: human PBMCs, equimolar amounts in the same SNALP, 24 h.

Turning to “GFP-S: native non-stimulatory ssRNA: GGCUACGUCCAGGAGCGCAUU (RNA, backbone not given here) [reference compound]”, in data set [1], the “response to loxoribine (plasma IFN-α and IL-6) after pre-treatment” value was “robust response”.
With “polyUmod15: 2′OMe-uridine homopolymer of 15 nucleotides in length (UUUUUUUUUUUUUUU; all 2'-O-methyl, backbone not given here)”, in data set [2], the “IL-6 levels induced by naked loxoribine” value is “inhibited only IFN-α levels” and the “level of IFN-α induced by naked loxoribine” value is recorded as “inhibited”. Further, the “cytokine production from human PBMCs when co-formulated with immunostimulatory RNA” value in data set [3] (human PBMCs, co-formulated with immunostimulatory ssRNA) is reported as “equally as effective at inhibiting cytokine production”. In data set [3] (setting [5]), the “IFN-α levels induced by β-gal antisense ssRNA when co-encapsulated” value was “significantly reduced” and the “IL-6 levels induced by β-gal antisense ssRNA when co-encapsulated” value is “significantly reduced”. Also, the “IFN-α levels induced by β-gal antisense ssRNA when co-encapsulated” value in data set [3] (human PBMCs, equimolar amounts in the same SNALP, 24 h, listed as (mU)15) was “inhibit”.
Regarding “βgal-AS: immunostimulatory ssRNA: AAAUCGCUGAUUUGUGUAGUU (chemistry not given here) [reference compound]”, in data set [4], the “plasma IFN-α after administration of the formulated RNA alone” value is recorded as “significant elevations” and the “plasma IL-6 after administration of the formulated RNA alone” value is “significant elevations”. The “IFN-α production induced by the RNA alone” value in data set [3] (human PBMC cultures, lipid-formulated RNA alone, doses 0.1 to 3 μg/ml) is reported as “induced high levels of IFN-α”.
